Test results taken from patent publication US8871753B2, “Macrocyclic compounds and their use as kinase inhibitors” (Incyte Corporation, priority 2008, dated 2014).
Counter-ions that a name gives are not always drawn. Like-named read-outs stand apart in the source and are kept apart here.

What was measured:
Format in all cases: biochemical
TYK2 = TYK2 (Homo sapiens, UniProt P29597); test: TYK2 kinase inhibition (Table A1)
[1] = target: T1, human JAK3 (a.a. 781-1124) (Homo sapiens, UniProt P52333); test: In vitro JAK kinase assay (HTRF, phosphorylation of a biotinylated peptide), JAK3
T1 construct: JAK3 (a.a. 781-1124); His tag (N); made in house; host or cells: insect cells (baculovirus)
In short: (§1)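 Kinase activity was measured as phosphorylation of a biotinylated peptide, with ATP at 90 μM for JAK1, 30 μM for JAK2 and 3 μM for JAK3. Reactions ran 1 hr at room temperature, were stopped with EDTA plus SA-APC and Eu-Py20, and were read by HTRF after 40 minutes of antibody binding.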

[2] = target: T2, human JAK1 (a.a. 837-1142) (Homo sapiens, UniProt P23458); test: In vitro JAK kinase assay (HTRF, phosphorylation of a biotinylated peptide), JAK1; conditions: read-out: JAK1 IC50
T2 construct: human JAK1 (a.a. 837-1142); His tag (N); made in house; host or cells: insect cells (baculovirus)
In short: as §1

[3] = target: T3, human JAK2 (a.a. 828-1132) (Homo sapiens, UniProt O60674); test: In vitro JAK kinase assay (HTRF, phosphorylation of a biotinylated peptide), JAK2
T3 construct: JAK2 (a.a. 828-1132); His tag (N); made in house; host or cells: insect cells (baculovirus)
In short: as §1

[4] = target: T4, Recombinant Human Anaplastic Lymphoma Kinase (Homo sapiens, UniProt Q9UM73); test: ALK HTRF kinase assay
T4 construct: purchased Invitrogen, Carlsbad, Calif
In short: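 Kinase activity of the recombinant human protein is measured on a biotinylated peptide, with a Eu-W1024 anti-phosphotyrosine antibody and streptavidin-allophycocyanin generating the homogeneous time-resolved fluorescence signal. Inhibition curves are fitted to yield IC50.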

[5] = compound at a concentration of 500 nM or 1 mM (not specified), cells shown as percentage
[6] = method AA1 (3 μM ATP) or AA2 (1000 μM ATP), not stated per value
[7] = method AA1 (90 μM ATP) or AA2 (1000 μM ATP), not stated per value
[8] = method AA1 (30 μM ATP) or AA2 (1000 μM ATP), not stated per value
[9] = compound at 500 nM or 1 mM, 90 μM ATP
[10] = Table B1, cells without percent sign

T3 sequence (O60674 828-1132): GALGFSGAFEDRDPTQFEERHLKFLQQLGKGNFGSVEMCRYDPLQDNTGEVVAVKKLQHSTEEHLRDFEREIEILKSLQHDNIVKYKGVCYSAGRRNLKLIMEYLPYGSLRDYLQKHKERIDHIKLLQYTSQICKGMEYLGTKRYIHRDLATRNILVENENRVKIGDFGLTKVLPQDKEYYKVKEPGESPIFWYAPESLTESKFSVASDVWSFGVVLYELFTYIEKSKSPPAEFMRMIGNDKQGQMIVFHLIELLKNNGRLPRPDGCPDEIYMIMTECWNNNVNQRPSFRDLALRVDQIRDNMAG
T1 sequence (P52333 781-1124): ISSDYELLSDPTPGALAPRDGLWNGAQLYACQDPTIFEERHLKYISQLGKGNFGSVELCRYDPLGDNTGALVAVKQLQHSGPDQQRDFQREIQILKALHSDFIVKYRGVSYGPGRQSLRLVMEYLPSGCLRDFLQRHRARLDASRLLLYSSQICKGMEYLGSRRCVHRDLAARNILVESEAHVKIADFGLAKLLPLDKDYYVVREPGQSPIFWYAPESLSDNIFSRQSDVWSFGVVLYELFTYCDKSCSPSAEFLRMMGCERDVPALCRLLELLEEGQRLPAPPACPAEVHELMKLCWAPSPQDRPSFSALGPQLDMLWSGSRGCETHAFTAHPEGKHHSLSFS
T4 sequence (Q9UM73 19-1620): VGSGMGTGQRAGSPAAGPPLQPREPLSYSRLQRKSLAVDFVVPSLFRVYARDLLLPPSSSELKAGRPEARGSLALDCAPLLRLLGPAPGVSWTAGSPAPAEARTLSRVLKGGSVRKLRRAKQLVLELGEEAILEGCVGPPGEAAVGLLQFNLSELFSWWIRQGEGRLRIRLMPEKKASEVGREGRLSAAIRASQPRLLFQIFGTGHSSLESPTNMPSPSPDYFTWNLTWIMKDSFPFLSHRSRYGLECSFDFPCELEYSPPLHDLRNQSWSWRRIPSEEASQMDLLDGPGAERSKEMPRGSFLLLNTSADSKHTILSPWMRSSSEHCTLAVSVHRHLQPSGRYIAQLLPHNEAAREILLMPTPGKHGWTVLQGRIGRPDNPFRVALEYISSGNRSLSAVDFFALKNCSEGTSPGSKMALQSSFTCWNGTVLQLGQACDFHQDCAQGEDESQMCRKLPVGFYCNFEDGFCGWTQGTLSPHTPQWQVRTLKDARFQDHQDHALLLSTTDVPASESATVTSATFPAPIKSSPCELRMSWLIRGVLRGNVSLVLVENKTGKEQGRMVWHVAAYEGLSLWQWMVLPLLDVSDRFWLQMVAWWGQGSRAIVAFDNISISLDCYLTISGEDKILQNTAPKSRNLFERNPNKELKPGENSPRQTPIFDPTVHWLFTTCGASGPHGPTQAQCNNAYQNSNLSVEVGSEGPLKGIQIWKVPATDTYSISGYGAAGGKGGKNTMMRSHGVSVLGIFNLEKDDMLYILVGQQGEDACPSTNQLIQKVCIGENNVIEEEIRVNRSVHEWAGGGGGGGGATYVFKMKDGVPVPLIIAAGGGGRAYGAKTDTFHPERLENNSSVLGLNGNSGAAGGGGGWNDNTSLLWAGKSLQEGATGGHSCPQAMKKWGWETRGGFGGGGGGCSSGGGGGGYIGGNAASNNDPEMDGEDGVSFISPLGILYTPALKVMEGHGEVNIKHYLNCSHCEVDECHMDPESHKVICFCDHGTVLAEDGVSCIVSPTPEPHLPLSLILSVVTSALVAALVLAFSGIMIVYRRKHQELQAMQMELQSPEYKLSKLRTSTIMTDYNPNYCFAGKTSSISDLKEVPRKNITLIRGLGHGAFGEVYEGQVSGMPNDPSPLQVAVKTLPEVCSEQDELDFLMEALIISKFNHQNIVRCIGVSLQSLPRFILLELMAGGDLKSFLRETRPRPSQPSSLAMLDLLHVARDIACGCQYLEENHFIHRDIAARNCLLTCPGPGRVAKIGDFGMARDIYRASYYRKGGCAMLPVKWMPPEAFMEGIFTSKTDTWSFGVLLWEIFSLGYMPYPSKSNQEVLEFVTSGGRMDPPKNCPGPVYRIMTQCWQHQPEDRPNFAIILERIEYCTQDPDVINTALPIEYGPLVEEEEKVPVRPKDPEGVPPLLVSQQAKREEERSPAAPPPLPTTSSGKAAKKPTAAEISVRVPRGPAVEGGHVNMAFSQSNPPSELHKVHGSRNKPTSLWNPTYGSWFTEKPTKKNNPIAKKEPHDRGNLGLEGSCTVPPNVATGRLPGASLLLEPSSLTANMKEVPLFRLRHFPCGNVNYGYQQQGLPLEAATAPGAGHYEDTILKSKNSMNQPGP
T2 sequence (P23458 849-1154): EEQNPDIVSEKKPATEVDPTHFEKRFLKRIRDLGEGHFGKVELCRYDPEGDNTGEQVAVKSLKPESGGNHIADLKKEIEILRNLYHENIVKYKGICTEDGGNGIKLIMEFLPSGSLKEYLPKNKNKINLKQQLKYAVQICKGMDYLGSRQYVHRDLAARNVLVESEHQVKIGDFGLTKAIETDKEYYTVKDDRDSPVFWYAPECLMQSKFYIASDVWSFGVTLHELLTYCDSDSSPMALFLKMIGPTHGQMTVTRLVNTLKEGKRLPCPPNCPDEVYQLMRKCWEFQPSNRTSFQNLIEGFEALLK
Sequence of TYK2 (P29597 whole entry): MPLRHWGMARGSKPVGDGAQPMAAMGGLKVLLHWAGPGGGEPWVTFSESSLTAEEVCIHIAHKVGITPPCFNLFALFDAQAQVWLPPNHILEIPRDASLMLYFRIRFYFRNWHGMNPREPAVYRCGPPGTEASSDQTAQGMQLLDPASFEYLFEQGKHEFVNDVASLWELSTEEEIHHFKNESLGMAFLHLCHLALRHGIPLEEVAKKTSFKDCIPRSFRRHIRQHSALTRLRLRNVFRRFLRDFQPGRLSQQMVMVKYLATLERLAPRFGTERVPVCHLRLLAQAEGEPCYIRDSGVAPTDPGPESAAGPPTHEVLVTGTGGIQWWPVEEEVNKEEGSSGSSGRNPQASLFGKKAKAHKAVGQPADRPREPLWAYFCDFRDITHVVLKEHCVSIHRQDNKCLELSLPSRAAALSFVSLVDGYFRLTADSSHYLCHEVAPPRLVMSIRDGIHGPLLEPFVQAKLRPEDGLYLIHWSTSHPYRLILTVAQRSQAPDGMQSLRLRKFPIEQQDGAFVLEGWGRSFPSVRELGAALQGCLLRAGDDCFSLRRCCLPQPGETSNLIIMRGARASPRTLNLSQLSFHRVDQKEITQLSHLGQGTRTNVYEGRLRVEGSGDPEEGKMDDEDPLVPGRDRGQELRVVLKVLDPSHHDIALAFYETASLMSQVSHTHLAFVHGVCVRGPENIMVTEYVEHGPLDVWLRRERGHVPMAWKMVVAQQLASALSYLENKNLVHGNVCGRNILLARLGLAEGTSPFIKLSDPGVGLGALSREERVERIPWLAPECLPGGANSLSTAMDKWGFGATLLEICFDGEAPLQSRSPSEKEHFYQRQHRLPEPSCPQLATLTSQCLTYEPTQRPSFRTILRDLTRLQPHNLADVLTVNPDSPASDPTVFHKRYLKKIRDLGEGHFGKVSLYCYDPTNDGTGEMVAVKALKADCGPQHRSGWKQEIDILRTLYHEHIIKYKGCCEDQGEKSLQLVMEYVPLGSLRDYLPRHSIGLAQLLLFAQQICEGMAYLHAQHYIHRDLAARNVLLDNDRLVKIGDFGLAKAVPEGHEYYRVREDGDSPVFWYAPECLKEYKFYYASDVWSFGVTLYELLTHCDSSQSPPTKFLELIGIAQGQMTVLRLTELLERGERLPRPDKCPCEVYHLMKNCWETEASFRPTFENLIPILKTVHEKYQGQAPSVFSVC

Structure (SMILES)	IC50 (TYK2; Table B1)	IC50 ([1]; Table B1)	IC50 ([2]; Table B1)	IC50 ([3]; Table B1)	IC50 (TYK2)	IC50 [1, 6]	IC50 [2, 7]	IC50 [3, 8]	ALK % of inhibition at a concentration of 500 nM or 1 mM [4, 9]	also measured
COCC(C)NC(=O)Nc1ccc2cc1CCc1cccc(c1)Nc1ncc(Cl)c(n1)N2 (stereo not shown) [Example B247, N-[6-Chloro-2,4,8,22-tetraazatetracyclo[14.3.1.1(3,7).1(9,13)]docosa-1(20),3(22),4,6,9(21),10,12,16,18-nonaen-12-yl]-N′-(2-methoxy-1-methylethyl)ureatrifluoroacetate]	20 nM	73 nM	6.5 nM	4 nM						ALK % of inhibition at a concentration of 500 nM or 1 mM [4, 5]: 7.5%
Cc1cccc(NC(=O)N2CCC(CC(=O)Nc3ccc4cc3CCc3cncc(c3)Nc3ncc(Cl)c(n3)N4)CC2)c1 [Example A150, 4-(2-{[6-Chloro-2,4,8,18,22-pentaazatetracyclo[14.3.1.1(3,7).1(9,13)]docosa-1(20),3(22),4,6,9(21),10,12,16,18-nonaen-12-yl]amino}-2-oxoethyl)-N-(3-methylphenyl)piperidine-1-carboxamide bis(trifluoroacetate)]					5.1 nM	> 100 nM	0.3 nM	1.1 nM	48%	
N#Cc1cccc(C(=O)Nc2ccc3cc2CCc2cccc(c2)Nc2ncc(Cl)c(n2)N3)c1 [Example B65, N-[6-Chloro-2,4,8,22-tetraazatetracyclo[14.3.1.1(3,7).1(9,13)]docosa-1(20), 3(22),4,6,9(21),10,12,16,18-nonaen-12-yl]-3-cyanobenzamide trifluoroacetate]	5.9 nM	8.8 nM	3.4 nM	1.8 nM						IC50 [4, 10]: 290 nM
Clc1cnc2nc1Nc1cccc(c1)CCSc1cccc(c1)N2 [Example D19, 6-Chloro-16-thia-2,4,8,23-tetraazatetracyclo[15.3.1.1(3,7).1(9,13)]tricosa-1(21),3(23),4,6,9(22),10,12,17,19-nonaene hydrochloride]										IC50 (TYK2; Table D1): 149 nM; IC50 ([1]; Table D1): 39 nM; IC50 ([2]; Table D1): 150 nM; IC50 ([3]; Table D1): 16 nM; IC50 ([4]; Table D1, 90 μM ATP): 562 nM
NS(=O)(=O)N1CCCC(C(=O)Nc2ccc3cc2CCc2cccc(c2)Nc2ncc(Cl)c(n2)N3)C1 (stereo not shown) [Example A73, 1-(Aminosulfonyl)-N-[6-chloro-2,4,8,22-tetraazatetracyclo[14.3.1.1(3,7).1(9,13)]docosa-1(20),3(22),4,6,9(21),10,12,16,18-nonaen-12-yl]piperidine-3-carboxamide trifluoroacetate]					8 nM	3 nM	10 nM	0.7 nM	49%	
Cc1cc(C)c(C#N)c(N2CCC(CC(=O)Nc3ccc4cc3CCc3cncc(c3)Nc3ncc(Cl)c(n3)N4)CC2)n1 [Example A239, N-[6-Chloro-2,4,8,18,22-pentaazatetracyclo[14.3.1.1(3,7).1(9,13)]docosa-1(20),3(22),4,6,9(21),10,12,16,18-nonaen-12-yl]-2-[1-(3-cyano-4,6-dimethylpyridin-2-yl)piperidin-4-yl]acetamide tris(trifluoroacetate)]					> 400 nM	> 400 nM	16 nM	226 nM	17%	
O=C(NCc1ccccc1)N1CCN(c2ccc(-c3cc4cc(c3)Nc3ncc(Cl)c(n3)Nc3cccc(c3)OCC4)cn2)CC1 [Example D48, bis(trifluoroacetate)]										IC50 (TYK2; Table D1): 8.3 nM; IC50 ([1]; Table D1): 27 nM; IC50 ([2]; Table D1): 4.9 nM; IC50 ([3]; Table D1): 2.1 nM; IC50 ([4]; Table D1, 90 μM ATP): > 1000 nM
O=C(Nc1ccc2cc1CCc1cccc(c1)Nc1ncc(Cl)c(n1)N2)C1CCN(C(=S)Nc2ccccc2)CC1 [Example A43, 1-(Anilinocarbonothioyl)-N-[6-chloro-2,4,8,22-tetraazatetracyclo[14.3.1.1(3,7).1(9,13)]docosa-1(20),3(22),4,6,9(21),10,12,16,18-nonaen-12-yl]piperidine-4-carboxamide trifluoroacetate]					48 nM	36 nM	1 nM	4.8 nM	32%	
COc1cc(C(=O)N2CCC(CC(=O)Nc3ccc4cc3CCc3cncc(c3)Nc3ncc(Cl)c(n3)N4)CC2)on1 [Example A215, N-[6-Chloro-2,4,8,18,22-pentaazatetracyclo[14.3.1.1(3,7).1(9,13)]docosa-1(20),3(22),4,6,9(21),10,12,16,18-nonaen-12-yl]-2-{1-[(3-methoxyisoxazol-5-yl)carbonyl]piperidin-4-yl}acetamide bis(trifluoroacetate)]					160 nM	> 200 nM	16 nM	185 nM	32%	
CC(=O)N1CCN(c2cc(-c3cc4cc(c3)Nc3ncc(Cl)c(n3)Nc3cccc(c3)OCC4)ccn2)CC1 [Example D35, 19-[2-(4-Acetylpiperazin-1-yl)pyridin-4-yl]-6-chloro-14-oxa-2,4,8,23-tetraazatetracyclo[15.3.1.1(3,7).1(9,13)]tricosa-1(21),3(23),4,6,9(22),10,12,17,19-nonaene bis(trifluoroacetate)]										IC50 (TYK2; Table D1): 4.3 nM; IC50 ([1]; Table D1): 7.7 nM; IC50 ([2]; Table D1): 0.7 nM; IC50 ([3]; Table D1): 0.4 nM; IC50 ([4]; Table D1, 90 μM ATP): 150 nM

Second part, led by results:

IC50 (TYK2; Table B1)	IC50 ([1]; Table B1)	IC50 ([2]; Table B1)	IC50 ([3]; Table B1)	IC50 (TYK2)	IC50 [1, 6]	IC50 [2, 7]	IC50 [3, 8]	ALK % of inhibition at a concentration of 500 nM or 1 mM [4, 9]	Structure (SMILES)	also measured
28 nM	36 nM	7.4 nM	12 nM						CC(C)(C)OC(=O)N1CC[C@H](NCc2ccc3cc2CCc2cccc(c2)Nc2ncc(Cl)c(n2)N3)C1 [Example B220, tert-Butyl (3S)-3-({[6-chloro-2,4,8,22-tetraazatetracyclo[14.3.1.1(3,7).1(9,13)]docosa-1(20),3(22),4,6,9(21),10,12,16,18-nonaen-12-yl]methyl}amino)pyrrolidine-1-carboxylate bis(trifluoroacetate)]	ALK % of inhibition at a concentration of 500 nM or 1 mM [4, 5]: 25%
46 nM	124 nM	9 nM	31 nM						O=C(Nc1ccc2c(c1)CCC2)Nc1ccc2cc1CCc1cccc(c1)Nc1ncc(Cl)c(n1)N2 [Example B103, N-[6-Chloro-2,4,8,22-tetraazatetracyclo[14.3.1.1(3,7).1(9,13)]docosa-1(20), 3(22),4,6,9(21),10,12,16,18-nonaen-12-yl]-N′-(2,3-dihydro-1H-inden-5-yl)urea trifluoroacetate]	ALK % of inhibition at a concentration of 500 nM or 1 mM [4, 5]: 49%
				343 nM	> 1000 nM	446 nM	220 nM	5%	Cc1noc(C)c1C(=O)N1CCC(C(=O)Nc2ccc3cc2CCc2cccc(c2)Nc2ncc(Cl)c(n2)N3)CC1 [Example A34, N-[6-Chloro-2,4,8,22-tetraazatetracyclo[14.3.1.1(3,7).1(9,13)]docosa-1(20), 3(22),4,6,9(21),10,12,16,18-nonaen-12-yl]-1-[(3,5-dimethylisoxazol-4-yl)carbonyl]piperidine-4-carboxamide trifluoroacetate]	
9.8 nM	48 nM	2.9 nM	3.3 nM						O=C(Nc1ccc2cc1CCc1cccc(c1)Nc1ncc(Cl)c(n1)N2)NC1CCCCC1 [Example B119, N-[6-Chloro-2,4,8,22-tetraazatetracyclo[14.3.1.1(3,7).1(9,13)]docosa-1(20), 3(22),4,6,9(21),10,12,16,18-nonaen-12-yl]-N′-cyclohexylurea trifluoroacetate]	ALK % of inhibition at a concentration of 500 nM or 1 mM [4, 5]: 19%
64 nM	331 nM	11 nM	11 nM						O=C(Nc1ccc2cc1CCc1cccc(c1)Nc1ncc(Cl)c(n1)N2)Nc1ccccc1-c1ccccc1 [Example B130, N-Biphenyl-2-yl-N′-[6-chloro-2,4,8,22-tetraazatetracyclo[14.3.1.1(3,7).1(9,13)]docosa-1(20),3(22),4,6,9(21),10,12,16,18-nonaen-12-yl]urea trifluoroacetate]	ALK % of inhibition at a concentration of 500 nM or 1 mM [4, 5]: 0%
				250 nM	> 1000 nM	7.8 nM	165 nM	37%	O=C(CC1CCN(c2ccccn2)CC1)Nc1ccc2cc1CCc1cncc(c1)Nc1ncc(Cl)c(n1)N2 [Example A170, N-[6-Chloro-2,4,8,18,22-pentaazatetracyclo[14.3.1.1(3,7).1(9,13)]docosa-1(20),3(22),4,6,9(21),10,12,16,18-nonaen-12-yl]-2-(1-pyridin-2-ylpiperidin-4-yl)acetamide tris(trifluoroacetate)]	
9.7 nM	44 nM	2.1 nM	2.6 nM						O=C(Nc1ccc2cc1CCc1cccc(c1)Nc1ncc(Cl)c(n1)N2)c1ccco1 [Example B33, N-[6-Chloro-2,4,8,22-tetraazatetracyclo[14.3.1.1(3,7).1(9,13)]docosa-1(20), 3(22),4,6,9(21),10,12,16,18-nonaen-12-yl]-2-furamide trifluoroacetate]	IC50 [4, 10]: 820 nM
